The values below come from ChEMBL document CHEMBL1909046, “DrugMatrix in vitro pharmacology data”.

One assay deals with Cannabinoid receptor 1 (Homo sapiens, UniProt P21554). In kind it is cell membranes, Chem-1, Membrane.
The target of a further assay is T1, Adenosine receptor A3 (Homo sapiens, UniProt P0DMS8).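 Further: radioligand binding assay with AB-MECA serving as the labeled ligand.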
T1 sequence (P0DMS8 whole entry): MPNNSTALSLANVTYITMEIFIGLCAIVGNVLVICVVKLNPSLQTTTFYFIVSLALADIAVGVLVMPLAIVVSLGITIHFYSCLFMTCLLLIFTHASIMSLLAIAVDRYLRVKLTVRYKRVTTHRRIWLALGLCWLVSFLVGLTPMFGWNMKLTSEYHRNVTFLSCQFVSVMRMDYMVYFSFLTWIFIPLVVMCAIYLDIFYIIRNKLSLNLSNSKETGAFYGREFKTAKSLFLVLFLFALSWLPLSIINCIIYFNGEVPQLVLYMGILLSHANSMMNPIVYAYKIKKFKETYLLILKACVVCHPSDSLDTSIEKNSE
In kind it is cell membranes, CHO-K1, Membrane. As to conditions: cho-k1.

Assay [1] deals with Protein phosphatase 3 catalytic subunit alpha (Homo sapiens, UniProt Q08209). Also on record: species or system Escherichia coli.
In another assay the target is T2, Neutrophil elastase (Homo sapiens, UniProt P08246).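 Further: inhibition of neutrophil elastase enzyme activity, measured with a p-nitroanilide-linked peptide substrate.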
T2 sequence (P08246 whole entry): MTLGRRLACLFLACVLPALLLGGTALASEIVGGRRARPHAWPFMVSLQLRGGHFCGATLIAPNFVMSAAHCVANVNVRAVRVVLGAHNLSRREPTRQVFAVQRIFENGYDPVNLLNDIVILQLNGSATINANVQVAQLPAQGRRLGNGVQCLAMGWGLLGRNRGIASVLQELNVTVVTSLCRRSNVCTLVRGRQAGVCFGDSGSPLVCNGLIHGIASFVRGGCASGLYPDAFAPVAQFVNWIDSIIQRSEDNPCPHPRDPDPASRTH
In kind it is tissue-based.

Assay [2] deals with T3, Nitric oxide synthase, inducible (Mus musculus, UniProt P29477).
T3 sequence (P29477 whole entry): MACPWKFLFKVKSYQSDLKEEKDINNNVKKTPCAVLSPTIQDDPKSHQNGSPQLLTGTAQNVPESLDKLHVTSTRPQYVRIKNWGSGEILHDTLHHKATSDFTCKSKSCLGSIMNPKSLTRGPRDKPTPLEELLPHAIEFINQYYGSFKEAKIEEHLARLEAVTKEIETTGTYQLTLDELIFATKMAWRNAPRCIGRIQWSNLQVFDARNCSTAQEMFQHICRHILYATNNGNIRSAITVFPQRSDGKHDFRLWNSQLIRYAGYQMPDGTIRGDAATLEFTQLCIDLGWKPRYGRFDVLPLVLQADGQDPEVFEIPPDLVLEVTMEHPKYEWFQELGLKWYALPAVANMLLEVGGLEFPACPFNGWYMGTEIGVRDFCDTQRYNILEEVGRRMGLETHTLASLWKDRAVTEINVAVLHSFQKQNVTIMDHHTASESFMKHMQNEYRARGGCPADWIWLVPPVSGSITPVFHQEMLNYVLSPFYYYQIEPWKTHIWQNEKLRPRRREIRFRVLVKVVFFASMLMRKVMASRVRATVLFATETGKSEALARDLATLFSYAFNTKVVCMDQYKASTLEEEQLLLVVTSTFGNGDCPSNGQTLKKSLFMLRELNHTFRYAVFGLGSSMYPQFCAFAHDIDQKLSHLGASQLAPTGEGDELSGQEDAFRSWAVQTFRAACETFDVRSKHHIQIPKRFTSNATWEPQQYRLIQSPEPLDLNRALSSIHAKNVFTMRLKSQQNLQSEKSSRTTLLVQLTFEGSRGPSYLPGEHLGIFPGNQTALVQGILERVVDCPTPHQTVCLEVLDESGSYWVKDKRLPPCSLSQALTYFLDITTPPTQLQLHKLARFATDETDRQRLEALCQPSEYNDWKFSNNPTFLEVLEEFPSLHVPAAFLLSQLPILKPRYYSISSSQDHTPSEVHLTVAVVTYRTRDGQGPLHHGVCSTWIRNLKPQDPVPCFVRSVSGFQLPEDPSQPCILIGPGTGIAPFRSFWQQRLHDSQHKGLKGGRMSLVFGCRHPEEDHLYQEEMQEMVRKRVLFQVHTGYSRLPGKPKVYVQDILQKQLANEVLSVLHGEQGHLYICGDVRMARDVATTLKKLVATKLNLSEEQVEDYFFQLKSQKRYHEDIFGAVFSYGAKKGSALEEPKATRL
Also noted: species or system Escherichia coli.

Assay [3] concerns the target C-C chemokine receptor type 2 (Homo sapiens, UniProt P41597). In kind it is cell membranes, Membrane. Conditions: cho-k1.
Further: in other assays of this panel Not Active means under 50% inhibition at 10 µM.

Sequence of Cannabinoid receptor 1 (P21554 whole entry): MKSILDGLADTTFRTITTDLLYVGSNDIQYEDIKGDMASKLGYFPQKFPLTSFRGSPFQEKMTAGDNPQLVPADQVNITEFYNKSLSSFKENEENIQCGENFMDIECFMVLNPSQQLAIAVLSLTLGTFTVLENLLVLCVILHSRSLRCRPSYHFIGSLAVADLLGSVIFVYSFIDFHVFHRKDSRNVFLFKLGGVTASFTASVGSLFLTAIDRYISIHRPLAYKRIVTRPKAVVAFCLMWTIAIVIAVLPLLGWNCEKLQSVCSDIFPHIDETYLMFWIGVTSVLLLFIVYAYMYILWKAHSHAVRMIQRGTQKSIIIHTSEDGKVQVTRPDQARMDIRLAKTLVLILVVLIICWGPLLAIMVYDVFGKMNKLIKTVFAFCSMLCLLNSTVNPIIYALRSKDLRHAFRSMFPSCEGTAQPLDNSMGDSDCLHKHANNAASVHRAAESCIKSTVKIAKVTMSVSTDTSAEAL
Sequence of C-C chemokine receptor type 2 (P41597 whole entry): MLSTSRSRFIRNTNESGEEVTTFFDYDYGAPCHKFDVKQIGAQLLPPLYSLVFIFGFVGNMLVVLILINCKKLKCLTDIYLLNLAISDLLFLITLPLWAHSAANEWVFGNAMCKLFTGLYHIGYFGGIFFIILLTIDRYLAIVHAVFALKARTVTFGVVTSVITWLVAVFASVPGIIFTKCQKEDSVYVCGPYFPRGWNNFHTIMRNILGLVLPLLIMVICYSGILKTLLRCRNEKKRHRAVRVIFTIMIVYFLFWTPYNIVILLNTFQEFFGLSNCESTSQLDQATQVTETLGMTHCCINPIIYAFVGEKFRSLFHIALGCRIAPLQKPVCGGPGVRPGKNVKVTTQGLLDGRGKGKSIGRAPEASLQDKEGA

Turning to `CCCCC(=O)N(Cc1ccc(-c2ccccc2-c2nnn[nH]2)cc1)[C@H](C(=O)O)C(C)C`, the IC50 result (at Cannabinoid receptor 1 (chem-1); against Adenosine receptor A3; in assay [1]; against Neutrophil elastase; in assay [2]) was “Not Active” each time.
For `O=C(O)COc1ccc(C(=O)c2cccs2)c(Cl)c1Cl`, the IC50 entry (in assay [3]; at Cannabinoid receptor 1 (chem-1); at Adenosine receptor A3; in assay [1]; against Neutrophil elastase; in assay [2]) was “Not Active” each time.
On to `CN1[C@@H]2CC[C@H]1C[C@@H](OC(c1ccccc1)c1ccccc1)C2` [BENZTROPINE], for which the IC50 entry (in assay [3]; against Cannabinoid receptor 1 (chem-1); at Adenosine receptor A3; in assay [1]; on Neutrophil elastase; in assay [2]) was “Not Active” in each case.
As for `C[C@@](Cc1ccc(O)c(O)c1)(NN)C(=O)O.O` [CARBIDOPA], the half-maximal inhibitory concentration (IC50) entry (in assay [3]; at Cannabinoid receptor 1 (chem-1); at Adenosine receptor A3; in assay [1]; against Neutrophil elastase; in assay [2]) was “Not Active” in each case.
As for `CN1CCN(C2=Nc3cc(Cl)ccc3Nc3ccccc32)CC1` [CLOZAPINE], the 50% inhibitory concentration (IC50) result (in assay [3]; against Cannabinoid receptor 1 (chem-1); on Adenosine receptor A3; in assay [1]; on Neutrophil elastase; in assay [2]) was “Not Active” each time.
On to `CC(C)NC[C@@H](O)COc1cccc2ccccc12` [DEXPROPRANOLOL], for which the IC50 result (in assay [3]; against Cannabinoid receptor 1 (chem-1); against Adenosine receptor A3; in assay [1]; at Neutrophil elastase; in assay [2]) was “Not Active” throughout.
Consider `CC(C)NC[C@H](O)COc1cccc2ccccc12` [LEVOPROPRANOLOL], for which the IC50 entry (in assay [3]; against Cannabinoid receptor 1 (chem-1); against Adenosine receptor A3; in assay [1]; at Neutrophil elastase; in assay [2]) was “Not Active” throughout.
Turning to `O=C(O)CCCCC1CCSS1` (stereo not drawn) [LIPOIC ACID, ALPHA], the IC50 entry (in assay [3]; against Cannabinoid receptor 1 (chem-1); against Adenosine receptor A3; in assay [1]; against Neutrophil elastase; in assay [2]) was “Not Active” throughout.
Consider `CN(C)C(=O)C(CCN1CCC(O)(c2ccc(Cl)cc2)CC1)(c1ccccc1)c1ccccc1` [LOPERAMIDE], for which the IC50 entry (in assay [3]; at Cannabinoid receptor 1 (chem-1); against Adenosine receptor A3; in assay [1]; against Neutrophil elastase; in assay [2]) was “Not Active” each time.
`Clc1ccc(COC(Cn2ccnc2)c2ccc(Cl)cc2Cl)c(Cl)c1` (configuration not stated) [MICONAZOLE]: the half-maximal inhibitory concentration (IC50) result was “Not Active” in assay [3]; 21 µM at Cannabinoid receptor 1 (read-out: IC50); “Not Active” in assay [1]; “Not Active” against Neutrophil elastase; “Not Active” in assay [2]. In addition, the inhibition constant (Ki) at Cannabinoid receptor 1 (read-out: Ki) was 16.6 µM.
With `Oc1ccc2c3c1O[C@H]1[C@@H](O)CC[C@@]4(O)[C@@H](C2)N(CC2CCC2)CC[C@]314` [NALBUPHINE], the concentration for half-maximal inhibition (IC50) entry (in assay [3]; against Cannabinoid receptor 1 (chem-1); against Adenosine receptor A3; in assay [1]; against Neutrophil elastase; in assay [2]) was “Not Active” throughout.
In the case of `C[C@]12C=CC(=O)C=C1CC[C@@H]1[C@@H]2C(=O)C[C@@]2(C)[C@H]1CC[C@]2(O)C(=O)CO` [PREDNISONE], the IC50 entry (in assay [3]; against Cannabinoid receptor 1 (chem-1); on Adenosine receptor A3; in assay [1]; against Neutrophil elastase; in assay [2]) was “Not Active” in each case.
On to `OCCOCCN1CCN(C2=Nc3ccccc3Sc3ccccc32)CC1` [QUETIAPINE], for which the half-inhibitory concentration (IC50) result (in assay [3]; against Cannabinoid receptor 1 (chem-1); against Adenosine receptor A3; in assay [1]; against Neutrophil elastase; in assay [2]) was “Not Active” each time.
